According to patent US12134788B2, “Engineered prephenate dehydrogenases and arogenate dehydrogenases and methods of using the same” (Wisconsin Alumni Research Foundation, priority 2017, dated 2024):
Changes are numbered by the printed parent chain. Names may count otherwise. “And” between values parts separate entries of the source, which are not always exact repeats. Identical values can stand only once. “Also recorded” adds a separate entry of the source. Like-named read-outs stand apart in the source and are kept apart here. Blank lines part the entries; values can stand above or below the molecule they belong to.

What was measured:
[1] = system: MhTyrA (MhTyrAp; KUK94425.1), Methanosaeta harundinacea TyrA, wild-type; assay: Kinetic analysis of MhTyrAp wild-type; assay type: biochemical; details: NADP+ cofactor
Protocol: (§1) FIGS. 14A-14B show a kinetic analysis of MhTyrAp wild-type and Q227E mutant enzymes. Kinetic analysis was performed with MhTyrAp wild-type (filled circle) and Q227E mutant (open square) enzymes using various concentrations of prephenate (FIG. 14A) and arogenate (FIG. 14B). Initial velocity values at each substrate concentration were fit to the Michaelis-Menten equation using Origin software. Kinetic analyses were conducted for MhTyrA wild-type using 3.41 μg of purified recombinant enzyme, and 4.56 μg and 2.28 μg of purified recombinant Q227E using prephenate and arogenate, respectively.
(§2) ADH and PDH assays were performed using purified recombinant enzymes for SsTyrA and MhTyrA Wt and Q227E mutant, while the E. coli cell lysate was used for OiTyrA as expression and purification of this enzyme was unsuccessful. Reactions contained 0.8 mM substrate (arogenate or prephenate) and 0.8 mM cofactor (NADP+ or NAD+) together with reaction buffer (25 mM HEPES pH 7.6, 50 mM KCl, 10% (v/v) ethylene glycol). For OiTyrA assays containing cell lysates, reactions were incubated for 45 minutes and analyzed using HPLC as previously reported (Schenck et al., 2015). For pure enzymes, reactions were monitored every 10-15 seconds for reduced cofactor at A340 nm using a microplate reader (Tecan Genios). Kinetic parameters of purified recombinant enzymes were determined from assays containing varying concentrations of arogenate (39.1 μM-5 mM) or prephenate (39.1 μM-5 mM) substrate and monitored 10-15 seconds for reduced cofactor at A340 nm using a microplate reader (Tecan Genios). Kinetic parameters were determined by fitting initial velocity data to the Michaelis-Menten equation using Origin software (OriginLab) from technical replicate assays (n=3). Arogenate substrate was prepared by enzymatic conversion of prephenate (Sigma-Aldrich). All enzyme assays were conducted at a reaction time and protein concentration that were in the linear range and proportional to reaction velocity.

[2] = target: T1, Medicago truncatula MtncADH variant D220C, SEQ ID NO: 10 (Medicago truncatula, UniProt A0A217FAR3, D220C); assay: ADH and PDH assay: steady-state kinetics and Tyr inhibition, MtncADH D220C; assay type: biochemical; details: kcat/Km
T1 construct: D220C by site-directed mutagenesis
T1 sequence (A0A217FAR3 1-266 D220C): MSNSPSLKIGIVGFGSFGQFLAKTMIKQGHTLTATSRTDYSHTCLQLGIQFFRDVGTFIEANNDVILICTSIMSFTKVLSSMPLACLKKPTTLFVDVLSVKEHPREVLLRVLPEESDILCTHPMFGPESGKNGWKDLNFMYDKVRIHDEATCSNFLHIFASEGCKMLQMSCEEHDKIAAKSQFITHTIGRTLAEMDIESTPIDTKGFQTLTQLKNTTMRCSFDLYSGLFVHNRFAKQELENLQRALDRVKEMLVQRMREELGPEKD
Protocol: (§3) Kinetic parameters of purified recombinant proteins were determined from assays conducted at varying arogenate (19.5 μM-5 mM) and prephenate concentration (23.4 μM-6 mM). Standard assay conditions were 25 mM HEPES pH 7.6, 50 mM KCl and 10% (v/v) ethylene glycol, and 0.5 mM NADP^+ with varied substrate, concentrations. Reactions were initiated by addition of enzyme and incubated at 37° C. monitored every 10-15 seconds at […] using a microplate reader (Tecan Genios). Kinetic parameters were determined by fitting initial velocity data to the Michaelis-Menten equation using the Origin software (OriginLab).
(§4) Arogenate was prepared by enzymatic conversion of prephenate (Sigma-Aldrich) as previously reported^56. For Tyr inhibition assays, Tyr was dissolved in a slightly basic solution (0.025 N NaOH) due to solubility issues, thus the concentration of lysis buffer was increased to 500 mM HEPES final concentration to buffer against the changes by addition of Tyr in the reaction. Reactions containing varying amounts of Tyr (10 μM-8 mM) with 0.5 mM NADP^+ and either 1 mM arogenate or 0.8 mM prephenate were monitored as above.

[3] = system: Peanut PDH/ADH (AipaensisVYE8T), Arachis ipaensis, wild type; assay: ADH and PDH assay: steady-state kinetics and Tyr inhibition, peanut PDH/ADH; assay type: biochemical
Protocol: as §3, §4

[4] = target: T2, Glycine max GmPDH1 variant N222D, SEQ ID NO: 2 (Glycine max, UniProt I1MYY4, N222D); assay: ADH and PDH assay: steady-state kinetics and Tyr inhibition, GmPDH1 N222D; assay type: biochemical, Glycine max (soybean); details: versus wild-type GmPDH1
T2 sequence (I1MYY4 1-271 N222D): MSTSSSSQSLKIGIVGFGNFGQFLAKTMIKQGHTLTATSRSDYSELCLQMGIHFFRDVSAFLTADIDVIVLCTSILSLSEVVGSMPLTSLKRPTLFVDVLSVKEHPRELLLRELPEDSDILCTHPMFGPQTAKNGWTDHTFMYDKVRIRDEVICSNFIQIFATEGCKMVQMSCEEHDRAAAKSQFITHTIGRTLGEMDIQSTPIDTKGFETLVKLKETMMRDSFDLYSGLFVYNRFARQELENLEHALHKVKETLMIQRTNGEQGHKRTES
Protocol: as §3, §4

[5] = system: Methanosaeta harundinacea MhTyrAp variant Q227E; assay: Kinetic analysis of MhTyrAp Q227E mutant; assay type: biochemical
Protocol: as §1, §2

[6] = target: T3, Medicago truncatula MtPDH variant C220D, SEQ ID NO: 1 (Medicago truncatula, UniProt A0A0A0R205, C220D); assay: ADH and PDH assay: steady-state kinetics and Tyr inhibition, MtPDH C220D; assay type: biochemical; details: compared to wild-type MtPDH
T3 sequence (A0A0A0R205 1-268 C220D): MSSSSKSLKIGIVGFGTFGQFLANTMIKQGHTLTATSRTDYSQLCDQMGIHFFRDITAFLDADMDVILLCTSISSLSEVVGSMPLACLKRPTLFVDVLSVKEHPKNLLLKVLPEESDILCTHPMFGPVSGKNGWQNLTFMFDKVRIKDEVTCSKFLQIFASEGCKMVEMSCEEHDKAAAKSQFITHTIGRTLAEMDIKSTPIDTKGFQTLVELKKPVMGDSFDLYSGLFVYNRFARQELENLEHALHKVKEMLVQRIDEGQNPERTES
Protocol: as §3, §4

[7] = target: T4, GmPDH1 (Gm18g02650), soybean (Glycine max) prephenate dehydrogenase, wild type (Glycine max, UniProt I1MYY4); assay: ADH and PDH assay: steady-state kinetics and Tyr inhibition, GmPDH1 wild type; assay type: biochemical
T4 construct: homodimer
T4 sequence (I1MYY4 1-271): T2 sequence (I1MYY4 1-271 N222D) with D222N
Protocol: as §3
as §4, with “Reactions containing varying amounts of Tyr (10 μM-8 mM) with 0.5 mM NADP^+ and either 1 mM arogenate or 0.8 mM prephenate were monitored as above.” left out

[8] = target: T5, MtPDH (MtPDH1; Mt3g071980), Medicago truncatula prephenate dehydrogenase, wild type (Medicago truncatula, UniProt A0A0A0R205); assay: ADH and PDH assay: steady-state kinetics and Tyr inhibition, MtPDH wild type; assay type: biochemical; details: preference for prephenate
T5 sequence (A0A0A0R205 1-268): T3 sequence (A0A0A0R205 1-268 C220D) with D220C
Protocol: as §3
as §4, with “Reactions containing varying amounts of Tyr (10 μM-8 mM) with 0.5 mM NADP^+ and either 1 mM arogenate or 0.8 mM prephenate were monitored as above.” left out

[9] = PDH assay: steady-state kinetics of purified recombinant plant enzymes with prephenate; assay type: biochemical; details: prephenate versus arogenate, NADP+ cofactor
Source text: As used herein, a polypeptide may “have greater arogenate dehydrogenase activity than prephenate dehydrogenase activity” or “have greater prephenate dehydrogenase activity than arogenate dehydrogenase activity” when the steady-state kinetic parameters (kcat/Km (mM^−1s^−1)) for arogenate dehydrogenase activity are greater than the steady-state parameters (kcat/Km (mM^−1s^−1)) for prephenate dehydrogenase activity or when the steady-state kinetic parameters (kcat/Km (mM^−1s^−1)) for prephenate dehydrogenase activity are greater than the steady-state parameters (kcat/Km (mM^−1s^−1)) for arogenate dehydrogenase activity. Steady-state kinetic parameters may be measured using techniques similar to those described by the inventors in the Examples. Briefly, kinetic parameters of purified polypeptides can be determined from assays conducted at varying arogenate and prephenate concentrations. Standard assay conditions include 25 mM HEPES pH 7.6, 50 mM KCl and 10% (v/v) ethylene glycol, and 0.5 mM NADP^+ with varied substrate, concentrations. Reactions can be initiated by the addition of the polypeptide and incubated at 37° C. monitored every 10-15 seconds at A340nm using a microplate reader. Kinetic parameters may be determined by fitting initial velocity data to the Michaelis-Menten equation using the Origin software.
as §3

[10] = Tyr inhibition assay of ADH activity (arogenate substrate); assay type: biochemical; details: Tyr up to 8 mM
Protocol: as §4

[11] = PDH assay of microbial TyrA enzymes (Example 2); assay type: biochemical; details: 0.8 mM arogenate or prephenate, 0.8 mM cofactor
Protocol: as §2

[12] = ADH assay of microbial TyrA enzymes (Example 2); assay type: biochemical; details: ADH activity, NADP+ versus NAD+, 0.8 mM
Protocol: as §2

Molecule: O=C(O)C(=O)CC1(C(=O)O)C=CC(O)C=C1 (centres unmarked) [prephenate]
Km [1]: 378 µM
Km ([1]; pH 7.6): 378 ± 20 µM
kcat ([1]; pH 7.6): 2.4 s⁻¹ and 2.44 ± 0.38 s⁻¹
kcat/Km ([1]; pH 7.6): 6400 M⁻¹ s⁻¹ and 6440 ± 20 M⁻¹ s⁻¹
fold preference for prephenate over arogenate [2]: 1.7 fold
Km ([3]; 0.5 mM NADP^+, pH 7.6, 37° C.): 190 ± 10 µM
kcat ([3]; 0.5 mM NADP^+, pH 7.6, 37° C.): 2.8 ± 0.2 s⁻¹
kcat/Km ([3]; 0.5 mM NADP^+, pH 7.6, 37° C.): 14,740 M^−1 s^−1
kcat/Km ([3]; FIG. 7A, with NADP^+): 14.9 mM⁻¹ s⁻¹
fold reduction in kcat/Km with prephenate [4]: 115 fold
kcat ([5]; NADP+ cofactor, pH 7.6): 0.285 ± 0.17 s⁻¹
kcat/Km ([5]; NADP+ cofactor, pH 7.6): 100 M⁻¹ s⁻¹ and 107 ± 10 M⁻¹ s⁻¹
Km ([5]; NADP+ cofactor, pH 7.6, read-out: Km): 2700 µM and 2670 µM
Km ([5]; read-out: Km for prephenate): 2400 µM
fold increase in Km for prephenate ([5]; versus wild-type): ~10 fold
fold reduction of catalytic efficiency (kcat/Km) ([5]; versus wild-type): 60 fold
fold higher Km [6]: 31 fold
kcat ([7]; 0.5 mM NADP^+, pH 7.6, 37° C.): 30.4 s⁻¹
fold higher kcat/Km, prephenate versus arogenate ([7]; preference for prephenate): 139 fold
fold higher kcat/Km, prephenate versus arogenate [8]: 21 fold

B1: MtncADH D220C: site-directed mutant of M. truncatula noncanonical ADH, Asp220 to Cys (protein)
chain: T1 sequence (A0A217FAR3 1-266 D220C)
modifications: Synthetic: MtncADH D220C
notes: site-directed mutant of M. truncatula noncanonical ADH, Asp220 to Cys
substrate specificity: PDH versus ADH activity (in words) [9]: reduced ADH activity and enhanced PDH activity
feedback inhibition by Tyr (in words) [10]: significantly less sensitive to Tyr inhibition than the respective wild-type enzymes

cofactor preference (in words) [12]: slight preference for NAD+
B2: SsTyrA: TyrA from Sediminispirochaeta smaragdinae DSM 11293 (spirochaetes), recombinant (protein)
chain: MVEHTVGIYGLGRFGSFWAKSLAASGLKVIGYNRSKRALPEGVVSGSETEVLSCNTLFYCVAISSFEEVLSRTAAKIGKHTLVFDTCSVKVEPVRTMERLLPQGCTFAGSHPMFGPDSASEGMDGLPMVLCPGRDDEGKVDFWRHHFSKMGLRVIEITADRHDKEAAYTQGITHVVGRILGELDLHESEIATSGYKRLLQVREQTCNDPLQLFIDLQRYNPYTHGMRMELTSALEQIMTLFAQADLPPDRP
modifications: S. smaragdinae; misc_feature (1)..(251): S. smaragdinae TyrA SsTyrA
notes: TyrA from Sediminispirochaeta smaragdinae DSM 11293 (spirochaetes), recombinant
ADH and PDH activity (in words) [11]: showed ADH activity; also recorded: PDH activity was not detectable

B3: AtADH2 D241N: site-directed mutant of Arabidopsis canonical ADH, Asp241 to Asn (protein)
chain: MLLHFSPAKPLISPPNLRRNSPTFLISPPRSLRIRAIDAAQIFDYETQLKSEYRKSSALKIAVLGFGNFGQFLSKTLIRHGHDLITHSRSDYSDAANSIGARFFDNPHDLCEQHPDVVLLCTSILSTESVLRSFPFQRLRRSTLFVDVLSVKEFPKALFIKYLPKEFDILCTHPMFGPESGKHSWSGLPFVYDKVRIGDAASRQERCEKFLRIFENEGCKMVEMSCEKHDYYAAGSQFVTHTMGRVLEKYGVESSPINTKGYETLLDLVENTSSNSFELFYGLFMYNPNALEQLERLDMAFESVKKELFGRLHQQYRKQMFGGEVQSPKKTEQKLLNDGGVVPMNDISSSSSSSSSSS
modifications: Synthetic: AtADH2 D241N
notes: site-directed mutant of Arabidopsis canonical ADH, Asp241 to Asn
substrate specificity: PDH versus ADH activity (in words) [9]: gained PDH activity at the expense of ADH activity
feedback inhibition by Tyr (in words) [10]: significantly less sensitive to Tyr inhibition than the respective wild-type enzymes
